Experimental data from patent publication US20260021167A1, “COMPOSITIONS AND METHODS FOR TREATING OR PREVENTING NEURODEGENERATIVE DISEASES” (Delaware State University, priority 2022, published 2026).
Like-named read-outs stand apart in the source and are kept apart here.

Columns and labels:
Assay type in all cases: cell-based, rat
[1] = tested on: N27 cells; experiment: Cytotoxicity (LDH) assay after PFF exposure
Protocol: (§1) Cytotoxicity Assay. The lactate dehydrogenase (LDH) is a cytosolic enzyme that is released into the media during cellular stress and increased levels of cytotoxicity. The cytotoxicity assay was measured using reagents from the Pierce LDH Cytotoxicity Assay Kit (88954, Thermo). For the assay, 50 μL of media from each well after PFF exposure, followed by SENP-1 treatment, was put into wells of a new 96-well plate. The LDH reagents were prepared according to the protocol provided, and 50 μL of the LDH reagent was mixed into each well. The total 100 μL of media containing LDH and its reagent were incubated at 37° C. for 30 min, followed by the application of a stop solution. The mixture was analyzed using a spectrophotometer (SpectraMax M5e, Molecular devices) at 490 nm with a reference wavelength of 680 nm.
In this study, numerous commercially available SENP-1 inhibitors were tested for the recovery effects from preformed fibrils of alpha-synuclein (PFF)-induced PD models in vitro. The screening process includes several SENP-1 inhibitors, including specific SENP-1 inhibitors (e.g., SUMO-2 Aldehyde, Momordin lc, streptonigrin, hinokiflavonem, and siRNAs of SENP-1) and nonspecific SENP-1 inhibitors (e.g., oleanolic acid, gallic acid), in N27 dopaminergic cells after the exposure of PFF for 24 hrs.

[2] = tested on: N27 cells; experiment: Cell viability (MTT) assay after PFF exposure; conditions: N27 cells after PFF (1 μg/ml) exposure for 24 h; compared to PFF only control
Description: (§2) Cell Viability Assay. The MTT assay is a colorimetric assay that is based on the conversion of water-soluble MTT (3-(4,5-dimethylthiazol-2-yl)-2,5-diphenyltetrazolium bromide) into formazan crystal by mitochondrial dehydrogenase enzymes, soluble in 100% DMSO. The resulting solution is purple in color, and the color intensity is proportional to the viable cells for each well in a 96-well plate. A variety of SENP-1 inhibitors, such as SUMO-2 aldehyde, Momordin lc, streptonigrin, hinokiflavone, oleanolic acid and siRNA of SENP-1, were treated in N27 cells after PFF (1 μg/ml) exposure for 24 h. After adding 5 mM MTT dye to cells, the color intensity in MTT assays was measured using a spectrophotometer (SpectraMax M5e, Molecular devices, Dover, USA), at 570 nm with a reference wavelength of 630 nm. The cells were incubated with the MTT reagent (ab211091, Abcam) at 37° C. for 3 h, followed by solubilizing the formazan crystals in solution.
In this study, numerous commercially available SENP-1 inhibitors were tested for the recovery effects from preformed fibrils of alpha-synuclein (PFF)-induced PD models in vitro. […]

[3] = tested on: N27 cells; experiment: ROS level (CellROX deep red) after PFF treatment; conditions: compared to PFF only control
Protocol: (§3) ROS Levels and Thioflavin-T Assessment. The reactive oxygen species (ROS) is a released byproduct during oxidative stress. On the other hand, thioflavin-T is an assay used to understand the level of protein aggregation that can be detrimental to cell survival. In order to assess the level of oxidative stress, all the SENP-1 inhibitors treated cells were incubated in media containing 5 μg/mL of the ROS reagent CellROX deep red reagent (C10422, Thermo Fisher Scientific) and 25 μg/mL of thioflavin-T reagent (CAS: 2390-54-7, Acros Organics) at 37° C. for 30 min. The cells were then washed 3 times with warm phosphate-buffered saline (PBS) without Ca^2+ or Mg^2+ (137 mM NaCl, 2.7 mM KCl, 4.3 mM Na2HPO4, and 1.47 mM KH2PO4), and several images from each well were collected using EVOS FL Cell Imaging Systems (Invitrogen, MA, USA). A minimum of 2 wells were dedicated to each group, and the experiments were repeated 3-4 times independently (total replicated: n=8-10/group). The intensity of red fluorescence corresponding to ROS levels and green labels corresponding to protein aggregation was analyzed by blinded raters using ImageJ.

[4] = tested on: N27 dopaminergic cells; experiment: Screening of SENP-1 inhibitors (LDH, MTT, ROS, Thioflavin-T) in PFF-induced PD model in vitro; conditions: N27 dopaminergic cells after exposure to PFF for 24 hrs
Description: as §2, §1
as §3, with “A minimum of 2 wells were dedicated to each group, and the experiments were repeated 3-4 times independently (total replicated: n=8-10/group).” left out, “ImageJ. […]” for “ImageJ.”

Compound | cytotoxicity derived from PFF (LDH assay) [1] | cytotoxicity derived from PFF (LDH assay) ([1]; N27 cells, PFF treatment, compared to PFF only control) | cell viability from PFF-mediated toxicity (MTT assay) [2] | level of ROS [3] | efficacy in preventing protein aggregation-mediated damage and reversing PFF-induced damage (LDH, MTT, ROS, Thioflavin-T assays) [4]
O=c1cc(-c2ccc(Oc3c(O)cc4oc(-c5ccc(O)cc5)cc(=O)c4c3O)cc2)oc2cc(O)cc(O)c12 [Hinokiflavone, hinokiflavone] | significantly reduced the cytotoxicity | – | – | – | –
COC1=C(N)C(=O)c2nc(-c3nc(C(=O)O)c(C)c(-c4ccc(OC)c(OC)c4O)c3N)ccc2C1=O [Streptonigrin, streptonigrin] | – | significantly reduced the cytotoxicity | significantly enhanced the cell viability | reduced the level of ROS | clearly efficacious
O=C(O)c1cc(O)c(O)c(O)c1 [gallic acid] | – | – | – | – | did not show an efficacy
CC1(C)CC[C@]2(C(=O)O)CC[C@]3(C)C(=CC[C@@H]4[C@@]5(C)CC[C@H](O)C(C)(C)[C@@H]5CC[C@]43C)[C@@H]2C1 [oleanolic acid] | – | – | – | – | did not show an efficacy
